{"source": "paper PMC6533572", "about": "“Elucidation of the Differences in Cinobufotalin’s Pharmacokinetics Between Normal and Diethylnitrosamine-Injured Rats: The Role of P-Glycoprotein” (Frontiers in Pharmacology, 2019)", "key": {"HepG2 cells [1]": {"test_system": "HepG2 cells", "experiment": "Cell viability CCK-8 assay, HepG2 cells", "type": "cell-based", "conditions": "Homo sapiens, 40 nM, 60 nM and 80 nM, 24 h, read-out: inhibition of HepG2 cells growth (CCK-8)", "description": "(§1) Hepatocellular cancer cells (HepG2 and Huh-7) were purchased from the cell bank of the Chinese Academy of Science (Shanghai, China). These cells were cultured in Dulbecco’s modified Eagle’s medium (DMEM) containing 10% fetal bovine serum (FBS), penicillin (100 units/mL) and streptomycin (100 units/mL) in a humidified atmosphere with 5% CO2 at 37 °C.\nFurthermore, the effect of cinobufotalin at 40, 60, 80 nM on hepatocellular cancer cells (HepG2 and Huh-7 cells) viability was conducted using Cell Counting Kit - 8 (CCK-8) assay (Sigma-Aldrich, St Louis, MO). In brief, cells were seeded into 96-well plates at 5 × 10^3 cells/well and cultured for 24 h in DMEM medium as described in 1.1 section. Then various concentrations of cinobufotalin (40, 60, 80 nM) were added into cells. After 24 h treatment, 10 μL of CCK-8 solution was added into every well of the plate. The plate was incubated in the incubator for other 4 h, and then the absorbance was measured at 450 nm using a microplate reader (Thermo Scientific, Rockford, IL). The cell viability was calculated by the formula: cell viability (100%) = (OD value of the treated wells - OD value of the blank control wells) / (OD value of the negative control wells - OD value of the blank control wells)."}, "HepG2 cells [2]": {"test_system": "HepG2 cells", "experiment": "Wound healing assay, HepG2 cells", "type": "cell-based", "conditions": "40, 60 and 80 nM, 24 h", "description": "as §1\nWound healing assay was used to investigate the effect of cinobufotalin on the migration of HepG2 and Huh-7 cells. Cells were seeded into 6-well plates at the density of 4 × 10^5 cells/well and maintained until reaching monolayer confluence. The cells were scratched using 20-μL pipette tips and rinsed with PBS buffer for three times. And then the cells were cultured in serum-free medium containing different concentrations of cinobufotalin (40, 60, 80 nM). After treatment with cinobufotalin for different lengths of time (0 and 24 h), the width of wound was measured and the images of cells were acquired using inverted microscope (Leica, Wetzlar, German). The rate of wound healing = [(the wound width of 0 h - 24 h)/0 h wound width] × 100%. All experiments were performed in triplicate."}, "[3]": {"experiment": "Stability in rat plasma under storage conditions", "type": "physicochemical", "description": "In addition, the stabilities of cinobufotalin at 20, 200, and 2000 ng/mL in different storage conditions were evaluated, including short term stability (such as 25°C for 4, 8, 12, and 24 h and 4°C for 4, 8, 12, and 24 h), long term stability (-80°C for 10 days) and three freeze-thaw cycles in rat plasma. Stabilities were expressed as the concentrations after different operations to the concentration at time zero. All of the samples were processed as described in Preparation of rat plasma samples section. A 5 μL aliquot was injected to UPLC-QTOF/MS for analyses."}, "P-glycoprotein (P-gp)": {"target": "T1, P-glycoprotein (P-gp) (Homo sapiens, UniProt P08183)", "T1 construct": "expressed in transfected cells; host or cells: MDCK II (Madin Darby canine kidney) cells stably transfected with the MDR1 gene", "T1 sequence (P08183 whole entry)": "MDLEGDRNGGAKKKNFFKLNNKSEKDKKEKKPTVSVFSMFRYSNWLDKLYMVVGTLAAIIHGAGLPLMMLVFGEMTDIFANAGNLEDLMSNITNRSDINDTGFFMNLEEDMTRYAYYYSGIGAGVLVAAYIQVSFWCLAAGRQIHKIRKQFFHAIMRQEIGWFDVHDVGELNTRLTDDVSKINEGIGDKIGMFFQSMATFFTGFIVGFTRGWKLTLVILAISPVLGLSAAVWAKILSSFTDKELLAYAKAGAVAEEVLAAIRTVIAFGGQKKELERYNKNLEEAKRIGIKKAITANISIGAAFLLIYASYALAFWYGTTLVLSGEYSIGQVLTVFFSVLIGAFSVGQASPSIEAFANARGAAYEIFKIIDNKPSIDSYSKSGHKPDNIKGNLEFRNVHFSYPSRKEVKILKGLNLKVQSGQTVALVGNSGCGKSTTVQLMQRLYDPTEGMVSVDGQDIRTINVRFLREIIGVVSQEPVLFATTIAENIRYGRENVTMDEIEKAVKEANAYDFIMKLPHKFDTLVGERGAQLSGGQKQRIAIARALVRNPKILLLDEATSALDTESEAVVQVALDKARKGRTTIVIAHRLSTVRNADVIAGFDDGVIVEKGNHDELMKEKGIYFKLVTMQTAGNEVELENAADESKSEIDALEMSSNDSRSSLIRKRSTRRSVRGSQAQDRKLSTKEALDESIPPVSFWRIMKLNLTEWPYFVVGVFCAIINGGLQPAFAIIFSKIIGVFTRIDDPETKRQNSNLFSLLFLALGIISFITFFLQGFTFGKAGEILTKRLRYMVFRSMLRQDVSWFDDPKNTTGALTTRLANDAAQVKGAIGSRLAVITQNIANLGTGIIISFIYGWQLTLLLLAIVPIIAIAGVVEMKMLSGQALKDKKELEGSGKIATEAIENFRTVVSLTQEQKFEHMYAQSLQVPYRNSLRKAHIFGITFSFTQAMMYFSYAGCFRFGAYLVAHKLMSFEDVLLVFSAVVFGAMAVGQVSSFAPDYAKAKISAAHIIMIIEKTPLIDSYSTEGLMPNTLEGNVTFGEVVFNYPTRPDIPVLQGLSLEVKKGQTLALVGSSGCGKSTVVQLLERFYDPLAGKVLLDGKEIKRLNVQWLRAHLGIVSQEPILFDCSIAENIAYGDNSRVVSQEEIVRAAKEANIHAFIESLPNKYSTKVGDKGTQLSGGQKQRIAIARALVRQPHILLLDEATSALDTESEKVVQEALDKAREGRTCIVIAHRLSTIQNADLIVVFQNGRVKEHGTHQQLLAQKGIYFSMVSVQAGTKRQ", "experiment": "Bidirectional transport across MDCK-MDR1 cell monolayers", "type": "in vitro ADME", "conditions": "for Net flux ratio: ER MDCK-MDR1 / ER MDCK II, cinobufotalin 20 μM; for Papp A→B at 120 min, 20 μM / Papp B→A at 120 min, 20 μM / efflux ratio at 120 min, 20 μM: dog, MDCK-MDR1, cinobufotalin 20 μM; for efflux ratio at 120 min, 20 μM: read-out: ER", "description": "MDCK II and MDCK-MDR1 cells were seeded into 12-well Transwell polycarbonate membrane inserts (12 mm diameter inserts, 0.4 μm pore size, Corning Costar) at a density of 6 × 10^5 cells/well. Cells were cultured at 37°C under 5% CO2 in DMEM with 10% FBS, and the culture medium was refreshed every other day. Experiments were conducted when the tight junctional cell monolayer formed. First, the cells were washed three times using 37°C preheated HBSS buffer (pH = 7.4) and preincubated in a shaking incubator for 30 min at 37°C. Then the transport studies were initiated after the blank HBSS buffer and dosing solution (HBSS buffer containing cinobufotalin at a final concentration of 20 μM) were added to the receiver compartment and donor compartment, respectively. Verapamil, if used, was added to both compartment during the incubated period. The volumes of the apical side (AP) and basolateral side (BL) were 0.5 and 1.5 mL, respectively. Samples (100 μL) were taken from the receiver compartment every 30 min during the incubation period of 120 min, and then replaced with the same volume of […]. At the end of the incubated period, aliquots of 100 μL were withdrawn from the donor compartment to calculated mass balance. All samples were mixed with 50 μL acetonitrile and centrifuged at 4°C (12,000 g, 10 min. The supernatant was subjected to UPLC-QTOF/MS for analyses.\nThe apparent permeability (cm/s) from apical-to-basal (Papp,AP-BL) and basal-to-apical (Papp,BL-AP) were calculated according to the following Equation (4), where dQ/dt is the rate of drug permeation (nmol/s), A is the area of polycarbonate membrane (A = 1.12 cm^2), and C0 is the initial concentration of cinobufotalin in the donor compartment.\nThe efflux ratio (ER) and net flux ratio were calculated according to Equations (5) and (6) as described in our previous research ([Sun et al., 2017]).\n(5) ER=Papp, BL−AP/Papp, AP−BL\n(6) Net flux ratio=ERMDCK−MDRI/ERMDCK II"}, "CYP3A4": {"test_system": "CYP3A4", "set-up": "method as in Han et al., 2016", "conditions": "especially mediated by CYP3A4; ref Han et al., 2016; cited from earlier work"}, "[4]": {"conditions": "pH 7.4, with verapamil (concentration not stated), in both compartments, with verapamil"}}, "note": "Read-outs that look alike come from different tables or passages of the source."}
{"smiles": "CC(=O)O[C@H]1[C@H]2O[C@]23[C@@H]2CC[C@]4(O)C[C@@H](O)CC[C@]4(C)[C@H]2CC[C@]3(C)[C@H]1c1ccc(=O)oc1", "note": "[Cinobufotalin]", "values": [{"measurement": "inhibition at 0.04 µM", "setting": "HepG2 cells [1]", "value": "< 15", "unit": "%"}, {"measurement": "migration of HepG2 cells (wound healing)", "setting": "HepG2 cells [2]", "value": "significantly attenuated"}, {"measurement": "Stability in rat plasma, Freezing-thaw 3 cycles", "setting": "[3]; 20 ng/mL", "value": "99.2 ± 0.8", "unit": "%"}, {"measurement": "Stability in rat plasma, -80°C for 10 days", "setting": "[3]; 200 ng/mL", "value": "100.9 ± 1.2", "unit": "%"}, {"measurement": "Stability in rat plasma, Freezing-thaw 3 cycles", "setting": "[3]; 200 ng/mL", "value": "95.6 ± 1.6", "unit": "%"}, {"measurement": "Stability in rat plasma, -80°C for 10 days", "setting": "[3]; 2000 ng/mL", "value": "97.3 ± 5.6", "unit": "%"}, {"measurement": "Stability in rat plasma, Freezing-thaw 3 cycles", "setting": "[3]; 2000 ng/mL", "value": "99.2 ± 0.6", "unit": "%"}, {"measurement": "Net flux ratio", "setting": "P-glycoprotein (P-gp)", "value": 2.1}, {"measurement": "Net flux ratio", "setting": "P-glycoprotein (P-gp); with verapamil", "value": 1.0}, {"measurement": "decrease of net flux ratio when verapamil was used", "setting": "P-glycoprotein (P-gp); MDCK-MDR1 vs MDCK II, with verapamil", "value": 50.7, "unit": "%"}, {"measurement": "Papp A→B at 120 min, 20 μM", "setting": "P-glycoprotein (P-gp); [4]", "value": "32.1 ± 1.5", "unit": "×10⁻⁶ cm/s"}, {"measurement": "Papp B→A at 120 min, 20 μM", "setting": "P-glycoprotein (P-gp); [4]", "value": "34.5 ± 2.3", "unit": "×10⁻⁶ cm/s"}, {"measurement": "efflux ratio at 120 min, 20 μM", "setting": "P-glycoprotein (P-gp); [4]", "value": 1.1}, {"measurement": "Papp A→B at 120 min, 20 μM", "setting": "P-glycoprotein (P-gp); pH 7.4", "value": "19.4 ± 1.3", "unit": "×10⁻⁶ cm/s"}, {"measurement": "Papp B→A at 120 min, 20 μM", "setting": "P-glycoprotein (P-gp); pH 7.4", "value": "42.4 ± 1.5", "unit": "×10⁻⁶ cm/s"}, {"measurement": "efflux ratio at 120 min, 20 μM", "setting": "P-glycoprotein (P-gp); pH 7.4", "value": 2.2}, {"measurement": "P-gp substrate identification", "setting": "P-glycoprotein (P-gp); net flux ratio higher than 2 and reduction more than 50% with verapamil", "value": "substrate of P-gp"}, {"measurement": "metabolic pathways in human liver microsomes", "setting": "CYP3A4", "value": "undergo hydroxylation and dehydrogenation"}]}
